Measurements from patent US20250256096A1 (priority 2022, published 2025).
Where “and” joins values, the source holds several entries; their conditions need not be identical. Equal values may be shown once. Read-outs that look alike come from different tables or passages of the source.

System: cervical vagus nerve
Format: in vivo, Adult male Lewis rats
Settings: for vagal nerve activity as detected by spike count analysis of electroneurograms: application directly to the cervical vagus nerve; for vagal nerve activity as detected by spike count analysis of electroneurograms / nerve firing of the main cervical vagus nerve: result in words; for nerve firing of the main cervical vagus nerve: intradermal application to trigeminal dermatomes on the forehead
[1] = intradermal application on forehead near trigeminal nerve endings, high (100 nM) concentration, mean +/- SEM

Row | Molecule | vagal nerve activity as detected by spike count analysis of electroneurograms | cervical vagus nerve average spike count [1] | cervical vagus nerve average spike count (intradermal application on forehead near trigeminal nerve endings, low (10 nM) concentration, mean +/- SEM) | nerve firing of the main cervical vagus nerve | effect on spike count (low (10 nM) or high (100 nM) concentrations directly on the cervical vagus nerve, data not shown) | cervical vagus nerve average spike count (rat, in vivo) | cervical vagus nerve average spike count (high (100 nM) concentration applied directly on the cervical vagus nerve, mean +/- SEM) | cervical vagus nerve average spike count (low (10 nM) concentration applied directly on the cervical vagus nerve, mean +/- SEM, POST 60-s segment)
1 | CC(C)C[C@H](NC(=O)c1cc2ccccc2s1)C(=O)N1CCN(C(=O)[C@H](CO)NS(=O)(=O)c2ccc(Cl)cc2Cl)CC1 [GSK1016790A] | increased | 13.8+/−1.0 spikes/second | 7.0+/−0.5 spikes/second | activated | no effect | – | – | –
2 | capsaicin | – | – | – | – | – | 11.2+/−0.6 spikes/second and 17.7+/−0.8 spikes/second and 9.6+/−0.5 spikes/second | – | –
3 | COc1cc(CNC(=O)CCCC/C=C/C(C)C)ccc1O [Capsaicin, capsaicin] | increased | 13.5+/−0.5 spikes/second | – | activated | – | – | 14.5+/−0.7 spikes/second | 7.6+/−0.7 spikes/second
4 | WS-12 | increased | – | – | activated | – | – | – | –
